Patent publication US8466118B2, “Modulation of blood brain barrier protein expression” (Saint Louis University, priority 2007, dated 2013)
Oligonucleotides are written 5' to 3', each unit as a sugar letter and its base; * is a phosphorothioate linkage, no mark a phosphodiester; rarer units and linkages stand in square brackets, end groups in braces. Plain capitals give the bases only. No end group written: not given here. d = 2'-deoxy (DNA)

Tests used:
beta-F1 ATPase = molecular target: T1, beta-F1 ATPase (Mus musculus, UniProt P56480); assay: Brain perfusion uptake of I-PACAP27/I-PACAP38 after iv antisense; format: in vivo; conditions: single tail vein injection 24 h before study, 10 μg/mouse
T1 construct: from tissue; host or cells: brain / blood-brain barrier of living mice (CD-1; SAMP8 in the T-maze study)
Method: To test the effectiveness of PTS-6 antisenses after their intravenous administration, two month old male CD-1 mice kept on a 12/12 hour light/dark cycle with food and water freely available were given an injection by tail vein of 0.9% saline with or without 10 μg/mouse of each of the three antisenses. To determine the specificity of the PTS-6 antisense on I-PACAP27 efflux, three other antisenses were also injected iv. These were:
After 24 h, the mice were anesthetized with urethane and both jugular veins exposed. The thorax was opened, the descending thoracic aorta clamped, both jugular veins severed, and lactated Ringer's solution containing I-PACAP27 (250,000 cpm/ml) perfused through the left ventricle of the heart at the rate of 2 ml/min. ^131I-PACAP38 (hereafter referred to as I-PACAP38) was perfused in some mice treated with PTS-6 antisense. After 5 min, the perfusion was stopped and 20 ml of lactated Ringer's solution was infused through the left ventricle of the heart to wash out the vascular space of the brain. The level of radioactivity was determined in the brain and in an aliquot of the perfusion fluid and results expressed as the brain/perfusion ratio in units of μl/g.

[1] = CNS pharmacokinetics of iv P-Olg (influx rate, saturability, capillary depletion, regional uptake); format: in vivo, mouse; conditions: for distribution between brain capillaries and parenchyma (capillary depletion) / saturability of brain uptake: 30 min after iv; for distribution between brain capillaries and parenchyma (capillary depletion): with vascular washout; for saturability of brain uptake: co-administration of 10 μg unlabeled PS-ODN; for rate of brain uptake (Ki): iv (jugular), multiple-time regression 2-30 min; for mean regional uptake into hippocampus (HPC) versus frontal cortex (FC) and whole brain (WB): iv, 2-30 min
Method: For this analysis, the brain/serum ratios for time points ranging from 2 to 30 min after i.v. injection was plotted against their respective exposure times (Expt). Expt is used instead of real time because this value corrects for the clearance of the injected substance from the blood. Without this correction, the influx rate would be overestimated. […] Expt will be calculated using the following formula: Expt=[∫^toCp(t)dt]/Cpt, where t is time, Cp represents the level of radioactivity in the serum and Cpt is the level of radioactivity in the serum at time t.
(§1) Calculation of the percent of injected dose taken up per gram of tissue: For the purpose of these studies, mice were injected iv (into the jugular vein) with P-19 mer or P-23 mer (5×10^5 cpm/200 μl of Lactated Ringer's solution (Baxter Healthcare Corporation, Deerfiled, Ill.) supplemented with 1% BSA). […] Serum levels of radioactivity were determined by counting 50 μl of serum in a gamma counter.
(§2) The % of the injected dose taken up by each gram of either whole brain, brain region (hippocampus or frontal cortex) or liver tissue (% Inj dose/g brain) was calculated using the following formula: % Inj dose/g brain=100(Am/Cpt−Vi)Cpt/Inj, where Am/Cpt represents the brain/serum ratio at time t, and Inj is the mean dose injected i.v. Subtracting Vi from the tissue/serum ratio corrects for P-Olg in the vascular space of the whole tissue. This will remove the vascular component so that the quantities expressed represent only the P-Olg that has been taken up by tissue. The values for % Inj dose/g brain will be plotted against their respective time points (min).
Measuring saturability of brain uptake for cocktail ODNs: To determine if brain uptake of each individual P-Olg was saturable, 10 μg/mouse of unlabeled cocktail PS-ODN (either 19 mer or 23 mer) was included in the i.v. injection of either P-19 mer or P-23 mer at a dose of 5×10^5 cpm/200 μl of Lactated Ringer's solution supplemented with 1% BSA [LR-BSA]). Brain and serum samples were collected 30 min after i.v. injection. Results were expressed as brain/serum ratios.
In these studies, mice received an iv injection of either P-19 mer or P-23 mer at a dose of 5×10^5 cpm/200 μl LR-BSA into the jugular vein. Washout of the vascular space was performed to remove any substances that were intravascular or loosely adhered to the capillary lumen of the brain microvasculature.
Mice were anesthetized with 40% urethane and, at 30 min after i.v. injection of P-Olg into the jugular vein, the abdomen was opened and arterial blood was collected from the abdominal aorta. Next, the thorax was opened with a midline sternal incision and the descending thoracic aorta was clamped to cut off the circulation to the lower body. Both jugular veins were severed and an 18-gauge needle connected to a 20 ml syringe containing lactated Ringers (LR) solution was inserted into the left ventricle of the heart. All 20 ml of LR were infused into the mouse heart over a period of 1-2 min. This washes out the vascular space of the brain and drains out the severed jugular veins. […] Next, the homogenate was vortexed and homogenized a second time (3 strokes). All homogenization steps were performed at 4° C. on ice. […] After centrifugation, the supernatant containing the brain parenchyma was separated from the pellet (containing the brain microvasculature) and the level of radioactivity was determined with a Beckman scintillation counter.
Results from the capillary depletion experiments were expressed as the volume of distribution in the brain or capillaries for the injected substance. Volume of distribution (VD) values were expressed as tissue (parenchyma or capillary)/serum ratios and were calculated for both fractions using the following formula: VD=(cpm/gram of tissue)/(cpm/ml of serum)

[2] = Percent of iv injected dose taken up per gram of brain or liver; format: in vivo, mouse
Method: as §1, §2
For these studies, the PS-ODNs were delivered iv and relative uptake into the brain and liver (from 5-30 min) were studied.

[3] = Brain-to-blood efflux rate of icv P-Olg; format: in vivo, mouse; conditions: for half-life of efflux from the brain: first 20 min after icv administration; for rate of brain efflux: icv injection
Method: First, mice were anesthetized with an i.p. injection of 40% urethane. After the scalp was removed, a hole was made through the cranium (1.0 mm lateral and 0.5 mm posterior to bregma) with a 26-gauge needle. All of the needle except 2.5 to 3.0 mm of the tip was covered by PE-10 tubing. […] Injections were made into the lateral ventricle (icv) with a 1.0 μl Hamilton syringe.
In experiments in which brain efflux of the cocktail PS-ODNs were determined, each P-Olg (either P-19 mer or P-23 mer) was studied separately. A P-Olg (5×10^3 cpm/μl) was administered by icv injection. Mice were then decapitated at 2, 5, and 20 min after injection and the brain was removed. The amount of radioactivity present in the brain was measured by a scintillation counter. The amount of radioactivity in the brain at t=0 was estimated in mice overdosed with urethane. […] Brains from these mice were removed 10 min after injection. The log of the mean % of the injected dose of radioactivity (amount detected/amount injected*100=% Inj Dose) in each brain was plotted against time (min) and linear regression analysis was used to create a line between these time points.

mouse brain microvessels = assay: I-PACAP27 binding to isolated mouse brain microvessels; conditions: for displacement of I-PACAP27 binding by unlabeled peptide: 50 nM unlabeled peptide, 2.5 min
Method: Binding Study. Freshly isolated microvessels (30 μg protein) were resuspended in 45 μl of incubation buffer (129 mM NaCl, 2.5 mM KCl, 7.4 mM Na2HPO4, 1.3 mM KH2PO4, 0.63 mM CaCl2, 0.74 mM MgSO4, 5.3 mM glucose, 0.1 mM ascorbic acid, pH 7.4) containing 1% bovine serum albumin (BSA). Microvessel protein levels were determined with the Biorad DC protein assay kit (Hercules, Calif.). Incubation buffer, PACAP27 (4 μl of 0.8 nM), and any additives as indicated below were mixed with the 45 μl suspension of cells to a final volume of 60 μl (to give a final PACAP27 concentration of 53 pM) and incubated for 2.5 min at room temperature unless otherwise specified. At the end of incubation, samples were assayed for protein-bound radioactivity by vacuum filtration through Gelman Sciences glass microfiber filters (Ann Arbor, Mich.) pretreated with 0.5% polyethyleneimine. Filters were washed three times with 4 ml of incubation buffer at 4° C. The radioactivity trapped on the filters was measured using a gamma-counter. Nonspecific binding was determined in the absence of microvessels and under the above conditions was 20% of the total binding (TB). The specific binding was calculated as total binding minus non-specific binding and expressed as a percentage. All experiments were performed in triplicate on at least three occasions and the results reported as means with their standard errors.
Inhibition of Specific Binding of PACAP27. Self-inhibition was tested by adding varying amounts of unlabeled PACAP27. The percent of specific binding was calculated by taking the % TB for microvessels incubated with 0.8 nM PACAP27 as 100% and without microvessel incubation as 0%. An n of 3 was used per concentration. The fmol specifically bound was calculated by dividing the percent of specific binding by 100 and multiplying by the pM (PACAP27 and any unlabeled PACAP27 combined) of the incubation solution and by the volume. This was plotted against the nM in the media and the relation fitted to a one-site hyperbolic binding model.
Inhibition of I-PACAP27 Binding by PACAP Related Peptides. The effects of 50 nM of unlabeled PACAP27, PACAP38, the PACAP antagonists PACAP 6-27 and PACAP 6-38 (Bachem, Torrance, Calif.), and VIP (Sigma, St. Louis, Mo.) on PACAP27 specific binding was determined. Results were expressed as percent of control.

Type-I binding sites = conditions: anterior pituitary and hypothalamus, I-PACAP27 radioligand; cited from earlier work

T1 sequence (P56480 47-529): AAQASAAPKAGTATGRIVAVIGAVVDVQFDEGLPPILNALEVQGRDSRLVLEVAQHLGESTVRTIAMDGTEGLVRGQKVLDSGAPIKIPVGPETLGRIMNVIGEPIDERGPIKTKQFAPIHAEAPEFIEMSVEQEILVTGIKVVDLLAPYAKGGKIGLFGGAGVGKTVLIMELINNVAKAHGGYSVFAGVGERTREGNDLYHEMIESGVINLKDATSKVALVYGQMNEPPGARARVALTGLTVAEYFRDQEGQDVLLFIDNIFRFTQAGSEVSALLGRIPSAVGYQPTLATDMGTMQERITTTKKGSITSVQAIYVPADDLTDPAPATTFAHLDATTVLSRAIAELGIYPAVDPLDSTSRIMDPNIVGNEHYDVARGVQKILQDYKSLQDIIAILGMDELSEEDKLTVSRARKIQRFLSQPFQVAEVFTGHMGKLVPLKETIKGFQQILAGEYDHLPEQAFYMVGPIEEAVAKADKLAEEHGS

## 5′-(_P═S)GATCACGTACACATCGACACCAGTCGCCATGACTGAGCTT (dG*dA*dT*dC*dA*dC*dG*dT*dA*dC*dA*dC*dA*dT*dC*dG*dA*dC*dA*dC*dC*dA*dG*dT*dC*dG*dC*dC*dA*dT*dG*dA*dC*dT*dG*dA*dG*dC*dT*dT; listed as Mus musculus) [random 42-mer]
beta-F1 ATPase
  uptake of I-PACAP27 delivered by brain perfusion: no statistically significant effect

## 5′-(_P═S)GTGTGGGCCGATGCAAACAGCAG-3′ (antisense dG*dT*dG*dT*dG*dG*dG*dC*dC*dG*dA*dT*dG*dC*dA*dA*dA*dC*dA*dG*dC*dA*dG; listed as Mus musculus) [P-23 mer]
[1]
  distribution between brain capillaries and parenchyma (capillary depletion): detected in the target tissue, the brain capillaries
  saturability of brain uptake: significantly reduced
  rate of brain uptake (Ki): 0.20 µL/g/min
  mean regional uptake into hippocampus (HPC) versus frontal cortex (FC) and whole brain (WB): significantly greater
[2]; 5 min after iv injection
  percentage taken up by each gram of brain: 0.010 % Inj dose/g
  percentage taken up by each gram of liver: 2.71 % Inj dose/g
[2]; 10 min after iv injection
  percentage taken up by each gram of brain: 0.044 % Inj dose/g
  percentage taken up by each gram of liver: 5.33 % Inj dose/g
[2]; 30 min after iv injection
  percentage taken up by each gram of brain: 0.052 % Inj dose/g
  percentage taken up by each gram of liver: 7.67 % Inj dose/g
[3]
  half-life of efflux from the brain: 0.797 h
  rate of brain efflux: 0.0063 % of the injected dose/min

## 5′-(_P═S)TGATTTGGTCTCTGCAGGC-3′ (antisense dT*dG*dA*dT*dT*dT*dG*dG*dT*dC*dT*dC*dT*dG*dC*dA*dG*dG*dC; listed as Mus musculus) [P-19 mer]
[1]
  distribution between brain capillaries and parenchyma (capillary depletion): detected in the target tissue, the brain capillaries
  saturability of brain uptake: not significantly decreased
  rate of brain uptake (Ki): 0.18 µL/g/min
  mean regional uptake into hippocampus (HPC) versus frontal cortex (FC) and whole brain (WB): greater than the uptake into the WB
[2]; 5 min after iv injection
  percentage taken up by each gram of brain: 0.042 % Inj dose/g
  percentage taken up by each gram of liver: 447 % Inj dose/g
[2]; 10 min after iv injection
  percentage taken up by each gram of brain: 0.079 % Inj dose/g
  percentage taken up by each gram of liver: 5.54 % Inj dose/g
[2]; 30 min after iv injection
  percentage taken up by each gram of brain: 0.116 % Inj dose/g
  percentage taken up by each gram of liver: 10.43 % Inj dose/g
[3]
  half-life of efflux from the brain: 3.858 h
  rate of brain efflux: 0.0013 % of the injected dose/min

## PACAP38: biologically active form of pituitary adenylate cyclase-activating polypeptide
Mouse brain microvessels; room temperature
  displacement of I-PACAP27 binding by unlabeled peptide: PACAP38>PACAP27>PACAP(6-38)>PACAP(6-27)
Type-I binding sites
  Kd: ~0.5 nM

## PACAP [PACAP27]
Mouse brain microvessels; 53 pM, room temperature
  time at which specific binding reached a maximum: about 20 min
Mouse brain microvessels; room temperature
  displacement of I-PACAP27 binding by unlabeled peptide: PACAP38>PACAP27>PACAP(6-38)>PACAP(6-27)
Mouse brain microvessels; self-inhibition of I-PACAP27 binding
  amount of unlabeled PACAP27 above which binding was inhibited competitively: above 30 ng
Type-I binding sites
  Kd: ~0.5 nM

## PACAP(6-27): PACAP antagonist (FTDSYSRYRKQMAVKKYLAAVL; ends and bridges not checked)
Mouse brain microvessels; room temperature
  displacement of I-PACAP27 binding by unlabeled peptide: PACAP38>PACAP27>PACAP(6-38)>PACAP(6-27)

## PACAP(6-38): PACAP antagonist (FTDSYSRYRKQMAVKKYLAAVLGKRYKQRVKNK; ends and bridges not checked)
Mouse brain microvessels; room temperature
  displacement of I-PACAP27 binding by unlabeled peptide: PACAP38>PACAP27>PACAP(6-38)>PACAP(6-27)

## vasoactive intestinal polypeptide [VIP]
Mouse brain microvessels; room temperature
  displacement of I-PACAP27 binding by unlabeled peptide: not affected
Type-I binding sites
  Kd: > 500 nM
